We go through 15 compounds from patent US12343347B2 (Biohaven Pharmaceutical Holding Company Ltd., priority 2012, dated 2025).

Common to all, as to format: in vitro ADME
A short description of data set [1]: Stability in Simulated Intestinal Fluid (SIF). The settings on record: SIF:acetonitrile 9:1, 0.01 mg/mL, 37° C. Here is the method:
(§1) Stability in Simulated Gastric Fluid (SGF) and Simulated Intestinal Fluid (SIF). Procedure from Baudy et. al. (J. Med. Chem. 2009, 52, 771-778) used. The physiological stability of pro-drugs was determined by examining the stability of the compound in SGF, and SIF at 37° C. The compounds were prepared in a 9:1 mixture of the appropriate test component (SGF, SIF) and acetonitrile to a final concentration of 0.01 mg/mL. The samples were thoroughly mixed and maintained at 37° C. Each sample was injected consecutively onto an Agilent 1100 system (Luna C18, 3 μm, 50 mm×3 mm; 1 mL/min; mobile phase of 0.1% trifluoroacetic acid in water/0.1% trifluoroacetic acid in acetonitrile) after a 3 h period. The percent remaining of pro-drug was calculated by comparing the area of pro-drug compound versus riluzole generated. The identities of the parent compounds and conversion products were confirmed by LC/MS.

The nature of data set [2]: Stability in Simulated Gastric Fluid (SGF). The settings on record: SGF:acetonitrile 9:1, 0.01 mg/mL, 37° C. Here is the method:
as §1

Data set [3] can be described thus: Metabolic stability in pooled mouse liver microsomes. The settings on record: mouse liver microsomes 0.5 mg/mL, 1 uM, NADPH, 37° C. The method, then: (§2) Metabolic Stability: In vitro metabolic stability was determined in pooled mouse or human liver microsomes (BD Gentest) at a protein concentration of 0.5 mg/mL in reaction buffer (100 mM KH2PO4, pH 7.4 and 12 mM MgCl2). Each drug candidate was added to a final concentration of 1 uM. This mixture was pre-warmed to 37° C. for 10 minutes prior to starting the reaction with the addition of β-Nicotinamide adenine dinucleotide 2′-phosphate reduced (NADPH) to a final concentration of 1 mM. A parallel incubation lacking NADPH served as the control. After incubation for 30 min at 37° C., the reactions were quenched by the addition of acetonitrile containing 0.1% formic acid and internal standard, vortex mixed for 2 minutes and centrifuged at 4000 rpm for 10 minutes to pellet the precipitated protein. The resulting supernatant containing the drug candidate and its potential metabolites was diluted 5-fold with water containing 0.1% formic acid and submitted to LC-MS/MS analysis. […]
(§3) LC-MS/MS Analysis: An aliquot from each incubation was analyzed by LC-MS/MS with SRM detection in the positive ionization mode using an ABSciex API 5500 QTrap Mass Spectrometer interfaced via the ABSciex Turbo V IonSpray source (ESI) to an Eksigent ExpressHT LC system. […] A fast gradient, from 15 to 85% organic in 2.5 minutes, with run time of 5.0 minutes, and flow rate of 50 uL/min was utilized. Peak areas were integrated using MultiQuant v2.0 software from ABSciex.

A short description of data set [4]: Plasma stability in fresh mouse plasma. The settings on record: 1 uM, 37° C. Here is the method:
(§4) Plasma Stability: Assessment of plasma stability was carried out by individual incubations of drug candidates in fresh mouse or human control plasma at a concentration of 1 uM for 1 hour at 37° C. After which, the samples were de-proteinized by addition of 2 volumes of acetonitrile containing 0.1% formic acid and internal standard, vortex mixed for 2 minutes and centrifuged at 4000 rpm for 10 minutes to pellet precipitated protein. The resulting supernatant containing the drug candidates was diluted 5-fold with water containing 0.1% formic acid and submitted to LC-MS/MS analysis. All determinations were done in triplicate. […]
as §3

Data set [5] can be described thus: Metabolic stability in pooled human liver microsomes. As to conditions: human liver microsomes 0.5 mg/mL, 1 uM, NADPH, 37° C. The method, then:
as §2, §3

Data set [6] is described as follows: Plasma stability in fresh human plasma. The settings on record: 1 uM, 37° C. The method, then:
as §4, §3

Consider `C[C@@H](N)C(=O)Nc1nc2ccc(OC(F)(F)F)cc2s1` [Cpd 2, (R)-2-Amino-N-(6-trifluoromethoxy-benzothiazol-2-yl)-propionamide], for which the “SIF (3 hours), percent of pro-drug metabolized to riluzole” value (from here on “SIF (3 hours), percent”) in data set [1] was 50%. Moreover, the “SGF (3 hours), percent of pro-drug metabolized to riluzole” value (shortened to “SGF (3 hours), percent”) in data set [2] is given as 0%. Moreover, the “Metabolic Stability mouse (30 minutes), percent of pro-drug metabolized to riluzole” value in data set [3] is 10%. The “Plasma Stability mouse (1 hour), percent of pro-drug metabolized to riluzole” value (shortened to “Plasma Stability mouse (1 hour), percent”) in data set [4] came out at 36%. In addition, in data set [5], the “Metabolic Stability human (30 minutes), percent of pro-drug metabolized to riluzole” value was 4%. The “Plasma Stability Human (1 hour), percent of pro-drug metabolized to riluzole” value (“Plasma Stability Human (1 hour), percent” for short) in data set [6] is 15%.

Turning to `N[C@@H](Cc1ccccc1)C(=O)Nc1nc2ccc(OC(F)(F)F)cc2s1` [Cpd 9, (S)-2-Amino-3-phenyl-N-(6-trifluoromethoxy-benzothiazol-2-yl)-propionamide], the “Metabolic Stability mouse (30 minutes), percent of pro-drug metabolized to riluzole” value in data set [3] turned out to be 2%. Besides, the “Plasma Stability mouse (1 hour), percent” value in data set [4] stood at 0%. In addition, the “Metabolic Stability human (30 minutes), percent of pro-drug metabolized to riluzole” value in data set [5] was found to be 0%. Also, the “Plasma Stability Human (1 hour), percent” value in data set [6] came to 7%.

For the compound `O=C(O)CCC(=O)Nc1nc2ccc(OC(F)(F)F)cc2s1` [Cpd 20, N-(6-Trifluoromethoxy-benzothiazol-2-yl)-succinamic acid], the “SIF (3 hours), percent” value in data set [1] is 0%. Further, the “SGF (3 hours), percent” value in data set [2] is on record as 0%. Further, the “Metabolic Stability mouse (30 minutes), percent of pro-drug metabolized to riluzole” value in data set [3] amounted to 70%. In addition, the “Plasma Stability mouse (1 hour), percent” value in data set [4] is listed as 0%. Besides, in data set [5], the “Metabolic Stability human (30 minutes), percent of pro-drug metabolized to riluzole” value worked out at 0%. Also, in data set [6], the “Plasma Stability Human (1 hour), percent” value is 16%.

For `CC(C)[C@H](N)C(=O)Nc1nc2ccc(OC(F)(F)F)cc2s1` [Cpd 11, (S)-2-Amino-3-methyl-N-(6-trifluoromethoxy-benzothiazol-2-yl)-butyramide], in data set [1], the “SIF (3 hours), percent” value is recorded as 40%. In addition, the “SGF (3 hours), percent” value in data set [2] is 0%. In addition, the “Metabolic Stability mouse (30 minutes), percent of pro-drug metabolized to riluzole” value in data set [3] is given as 40%. Further, the “Plasma Stability mouse (1 hour), percent” value in data set [4] is recorded as 45%. Further, in data set [5], the “Metabolic Stability human (30 minutes), percent of pro-drug metabolized to riluzole” value is recorded as 6%. Also, the “Plasma Stability Human (1 hour), percent” value in data set [6] is recorded as 11%.

For the compound `C[C@H](N)C(=O)Nc1nc2ccc(OC(F)(F)F)cc2s1` [Cpd 7, (S)-2-Amino-N-(6-trifluoromethoxy-benzothiazol-2-yl)-propionamide], the “SIF (3 hours), percent” value in data set [1] is given as 50%. The “SGF (3 hours), percent” value in data set [2] is listed as 0%. For the same compound, the “Metabolic Stability mouse (30 minutes), percent of pro-drug metabolized to riluzole” value in data set [3] was determined as 1%. Besides, the “Plasma Stability mouse (1 hour), percent” value in data set [4] came out at 28%. For the same compound, the “Metabolic Stability human (30 minutes), percent of pro-drug metabolized to riluzole” value in data set [5] was 0%. For the same compound, the “Plasma Stability Human (1 hour), percent” value in data set [6] turned out to be 10%.

Take `COC(=O)CCC(=O)Nc1nc2ccc(OC(F)(F)F)cc2s1` [Cpd 21, N-(6-Trifluoromethoxy-benzothiazol-2-yl)-succinamic acid methyl ester]: in data set [1], the “SIF (3 hours), percent” value was 0%. In data set [2], the “SGF (3 hours), percent” value is reported as 3%. For the same compound, in data set [3], the “Metabolic Stability mouse (30 minutes), percent of pro-drug metabolized to riluzole” value came out at 77%. Also, the “Plasma Stability mouse (1 hour), percent” value in data set [4] is given as 99%. In addition, in data set [5], the “Metabolic Stability human (30 minutes), percent of pro-drug metabolized to riluzole” value was 34%. Further, in data set [6], the “Plasma Stability Human (1 hour), percent” value stood at 25%.

Regarding `NCC(=O)Nc1nc2ccc(OC(F)(F)F)cc2s1` [Cpd 1, 2-Amino-N-(6-trifluoromethoxy-benzothiazol-2-yl)-acetamide], the “Metabolic Stability mouse (30 minutes), percent of pro-drug metabolized to riluzole” value in data set [3] stood at 4%. In addition, the “Plasma Stability mouse (1 hour), percent” value in data set [4] turned out to be 11%. The “Metabolic Stability human (30 minutes), percent of pro-drug metabolized to riluzole” value in data set [5] is reported as 7%. Besides, the “Plasma Stability Human (1 hour), percent” value in data set [6] stood at 3%.

Regarding `CN(C)CCOC(=O)Nc1nc2ccc(OC(F)(F)F)cc2s1` [Cpd 18, (6-Trifluoromethoxy-benzothiazol-2-yl)-carbamic acid 2-dimethylamino-ethyl ester], in data set [1], the “SIF (3 hours), percent” value is reported as 0%. For the same compound, the “SGF (3 hours), percent” value in data set [2] was 0%. Moreover, the “Metabolic Stability mouse (30 minutes), percent of pro-drug metabolized to riluzole” value in data set [3] is listed as 13%. In addition, the “Plasma Stability mouse (1 hour), percent” value in data set [4] turned out to be 3%. The “Metabolic Stability human (30 minutes), percent of pro-drug metabolized to riluzole” value in data set [5] was determined as 10%. For the same compound, in data set [6], the “Plasma Stability Human (1 hour), percent” value is reported as 0%.

With `CCCCOC(=O)Nc1nc2ccc(OC(F)(F)F)cc2s1` [Cpd 15, (6-Trifluoromethoxy-benzothiazol-2-yl)-carbamic acid butyl ester], the “SIF (3 hours), percent” value in data set [1] is listed as 0%. Further, the “SGF (3 hours), percent” value in data set [2] is reported as 0%. Further, in data set [3], the “Metabolic Stability mouse (30 minutes), percent of pro-drug metabolized to riluzole” value was found to be 53%. In data set [4], the “Plasma Stability mouse (1 hour), percent” value worked out at 9%. For the same compound, in data set [5], the “Metabolic Stability human (30 minutes), percent of pro-drug metabolized to riluzole” value came to 13%. In addition, in data set [6], the “Plasma Stability Human (1 hour), percent” value is 0%.

For the compound `CN(C)CCCOC(=O)Nc1nc2ccc(OC(F)(F)F)cc2s1` [Cpd 19, (6-Trifluoromethoxy-benzothiazol-2-yl)-carbamic acid 3-dimethylamino-propyl ester], the “SIF (3 hours), percent” value in data set [1] is given as 0%. Also, in data set [2], the “SGF (3 hours), percent” value was 0%. Besides, the “Metabolic Stability mouse (30 minutes), percent of pro-drug metabolized to riluzole” value in data set [3] was found to be 71%. The “Plasma Stability mouse (1 hour), percent” value in data set [4] worked out at 0%. The “Metabolic Stability human (30 minutes), percent of pro-drug metabolized to riluzole” value in data set [5] was 0%. Also, the “Plasma Stability Human (1 hour), percent” value in data set [6] is on record as 0%.

On to `Nc1ccc(C(=O)Nc2nc3ccc(OC(F)(F)F)cc3s2)cc1` [Cpd 28, 4-Amino-N-(6-trifluoromethoxy-benzothiazol-2-yl)-benzamide], for which the “SIF (3 hours), percent” value in data set [1] was 0%. For the same compound, in data set [2], the “SGF (3 hours), percent” value is listed as 0%. The “Metabolic Stability mouse (30 minutes), percent of pro-drug metabolized to riluzole” value in data set [3] is given as 24%. Besides, the “Plasma Stability mouse (1 hour), percent” value in data set [4] amounted to 0%. The “Metabolic Stability human (30 minutes), percent of pro-drug metabolized to riluzole” value in data set [5] turned out to be 80%. In addition, in data set [6], the “Plasma Stability Human (1 hour), percent” value came to 0%.

Take `CCCCCCOC(=O)Nc1nc2ccc(OC(F)(F)F)cc2s1` [Cpd 17, (6-Trifluoromethoxy-benzothiazol-2-yl)-carbamic acid hexyl ester]: in data set [2], the “SGF (3 hours), percent” value is 0%.

`NCC1(CC(=O)Nc2nc3ccc(OC(F)(F)F)cc3s2)CCCCC1` [Cpd 29, 2-(1-Aminomethyl-cyclohexyl)-N-(6-trifluoromethoxy-benzothiazol-2-yl)-acetamide]: in data set [1], the “SIF (3 hours), percent” value was 50%. The “SGF (3 hours), percent” value in data set [2] was 0%.

Regarding `N[C@H](COCc1ccccc1)C(=O)Nc1nc2ccc(OC(F)(F)F)cc2s1` [Cpd 5, (R)-2-Amino-3-benzyloxy-N-(6-trifluoromethoxy-benzothiazol-2-yl)-propionamide], the “Metabolic Stability mouse (30 minutes), percent of pro-drug metabolized to riluzole” value in data set [3] was determined as 24%. Also, the “Plasma Stability mouse (1 hour), percent” value in data set [4] came to 25%. In data set [5], the “Metabolic Stability human (30 minutes), percent of pro-drug metabolized to riluzole” value was found to be 0%. Also, in data set [6], the “Plasma Stability Human (1 hour), percent” value is 3%.

With `O=C(CCC(=O)Nc1nc2ccc(OC(F)(F)F)cc2s1)NCCN1CCOCC1` [Cpd 24, N-(2-Morpholin-4-yl-ethyl)-N′-(6-trifluoromethoxy-benzothiazol-2-yl)-succinamide], in data set [1], the “SIF (3 hours), percent” value is reported as 60%. The “SGF (3 hours), percent” value in data set [2] is listed as 0%.
